Results taken from ChEMBL document CHEMBL1201862, “PubChem BioAssay data set” (2004).
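Cultured in 96-well plates, cells were exposed to test compound for 48 hours across five concentrations. GI50 marks 50% less growth.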 The source made the active and inactive calls. Rule as the data show it: active = GI50 up to about 1.1 µM and inactive = higher.

Experiments:
Experiment in all cases: inhibition of tumour cell growth, NCI panel, 48 h
[1] = tested on: ACHN
[2] = tested on: SW-620
[3] = tested on: CAKI-1
[4] = tested on: CCRF-CEM
[5] = tested on: UACC-257
[6] = tested on: DU-145
[7] = tested on: K562
[8] = tested on: HOP-62
[9] = tested on: EKVX
[10] = tested on: 786-0
[11] = tested on: RXF 393
[12] = tested on: HOP-92
[13] = tested on: SF-295
[14] = tested on: M14
[15] = tested on: UO-31
[16] = tested on: OVCAR-8
[17] = tested on: MOLT-4
[18] = tested on: MCF7
[19] = tested on: SK-MEL-5
[20] = tested on: KM12
[21] = tested on: T47D
[22] = tested on: LOX IMVI
[23] = tested on: COLO 205
[24] = tested on: OVCAR-3
[25] = tested on: OVCAR-4
[26] = tested on: A549
[27] = tested on: NCI-H226
[28] = tested on: HT-29
[29] = tested on: UACC-62
[30] = tested on: Hs-578T
[31] = tested on: HL-60
[32] = tested on: IGROV-1
[33] = tested on: SK-OV-3
[34] = tested on: SNB-75
[35] = tested on: OVCAR-5
[36] = tested on: HCT-15
[37] = tested on: NCI-H460
[38] = tested on: BT-549
[39] = tested on: TK-10
[40] = tested on: RPMI-8226
[41] = tested on: SF-268
[42] = tested on: MDA-N
[43] = tested on: A498
[44] = tested on: SK-MEL-2
[45] = tested on: U-251
[46] = tested on: NCI-H23
[47] = tested on: NCI-H522
[48] = tested on: PC-3
[49] = tested on: SR
[50] = tested on: SN12C
[51] = tested on: HCT-116
[52] = tested on: SNB-19
[53] = tested on: NCI/ADR-RES
[54] = tested on: Malme-3M
[55] = tested on: MDA-MB-435
[56] = tested on: SF-539
[57] = tested on: SK-MEL-28
[58] = tested on: HCC 2998
[59] = tested on: MDA-MB-231

CC(C)(C)[Si](C)(C)Oc1ccc(C2CNC(=O)C23CCC(=O)N3Cc2ccccc2)cc1 (stereo not drawn)
GI50 [1]: 15 µM (inactive)
GI50 [2]: 15.1 µM (inactive)
GI50 [3]: 19.7 µM (inactive)
GI50 [4]: 17.6 µM (inactive)
GI50 [5]: 12.4 µM (inactive)
GI50 [6]: 16.7 µM (inactive)
GI50 [7]: 7.24 µM (inactive)
GI50 [8]: 20.5 µM (inactive)
GI50 [9]: 6.68 µM (inactive)
GI50 [10]: 18.9 µM (inactive)
GI50 [11]: 10.7 µM (inactive)
GI50 [12]: 17.1 µM (inactive)
GI50 [13]: 13.9 µM (inactive)
GI50 [14]: 16.4 µM (inactive)
GI50 [15]: 16 µM (inactive)
GI50 [16]: 12.6 µM (inactive)
GI50 [17]: 6.14 µM (inactive)
GI50 [18]: 4.54 µM (inactive)
GI50 [19]: 5.71 µM (inactive)
GI50 [20]: 15.8 µM (inactive)
GI50 [21]: 15.9 µM (inactive)
GI50 [22]: 16.1 µM (inactive)
GI50 [23]: 11.7 µM (inactive)
GI50 [24]: 12.5 µM (inactive)
GI50 [25]: 13.7 µM (inactive)
GI50 [26]: 10 µM (inactive)
GI50 [27]: 18.9 µM (inactive)
GI50 [28]: 12.2 µM (inactive)
GI50 [29]: 15.2 µM (inactive)
GI50 [30]: 7.31 µM (inactive)
GI50 [31]: 4.62 µM (inactive)
GI50 [32]: 15.3 µM (inactive)
GI50 [33]: 15.5 µM (inactive)
GI50 [34]: 17.8 µM (inactive)
GI50 [35]: 17.5 µM (inactive)
GI50 [36]: 12.8 µM
GI50 [37]: 7.14 µM (inactive)
GI50 [38]: 15.5 µM (inactive)
GI50 [39]: 13.2 µM (inactive)
GI50 [40]: 4.15 µM (inactive)
GI50 [41]: 12.6 µM (inactive)
GI50 [42]: 13.3 µM (inactive)
GI50 [43]: 12.2 µM (inactive)
GI50 [44]: 16.6 µM (inactive)
GI50 [45]: 12.5 µM (inactive)
GI50 [46]: 11.4 µM (inactive)
GI50 [47]: 10.7 µM (inactive)
GI50 [48]: 15.2 µM (inactive)
GI50 [49]: 7.96 µM (inactive)
GI50 [50]: 15 µM (inactive)
GI50 [51]: 22.2 µM (inactive)
GI50 [52]: 15 µM (inactive)
GI50 [53]: 12.8 µM (inactive)
GI50 [54]: 18.2 µM (inactive)
GI50 [55]: 12.4 µM (inactive)
GI50 [56]: 16.7 µM (inactive)

O=C(N/N=C(\c1ccccc1)c1ccccn1)NC1CCCCC1
GI50 [1]: 44.6 µM (inactive)
GI50 [2]: 76 µM (inactive)
GI50 [3]: 57 µM (inactive)
GI50 [4]: 40.8 µM (inactive)
GI50 [5]: > 100 µM (inactive)
GI50 [6]: 64.6 µM (inactive)
GI50 [7]: 5.46 µM (inactive)
GI50 [8]: 23.4 µM (inactive)
GI50 [9]: 41.8 µM (inactive)
GI50 [10]: 63.5 µM (inactive)
GI50 [12]: 61.8 µM (inactive)
GI50 [13]: 26.6 µM (inactive)
GI50 [14]: 30 µM (inactive)
GI50 [15]: 43.5 µM (inactive)
GI50 [17]: 41.1 µM (inactive)
GI50 [19]: 40.1 µM (inactive)
GI50 [57]: > 100 µM (inactive)
GI50 [20]: 59.3 µM (inactive)
GI50 [21]: 28.6 µM (inactive)
GI50 [22]: 19.4 µM (inactive)
GI50 [58]: 56.4 µM (inactive)
GI50 [23]: 65 µM (inactive)
GI50 [24]: 39.6 µM (inactive)
GI50 [25]: 22.7 µM (inactive)
GI50 [26]: 46.8 µM (inactive)
GI50 [27]: 41.1 µM (inactive)
GI50 [28]: 59.2 µM (inactive)
GI50 [29]: 38.2 µM (inactive)
GI50 [30]: > 100 µM (inactive)
GI50 [32]: 30.6 µM (inactive)
GI50 [33]: 45.5 µM (inactive)
GI50 [34]: > 100 µM (inactive)
GI50 [35]: > 100 µM (inactive)
GI50 [36]: 22.9 µM
GI50 [37]: 48 µM (inactive)
GI50 [38]: 42.4 µM (inactive)
GI50 [39]: 26.9 µM (inactive)
GI50 [40]: 48.1 µM (inactive)
GI50 [59]: 27.7 µM (inactive)
GI50 [41]: 37.2 µM (inactive)
GI50 [42]: > 100 µM (inactive)
GI50 [44]: 82.4 µM (inactive)
GI50 [45]: 51.1 µM (inactive)
GI50 [46]: 47.9 µM (inactive)
GI50 [47]: 47.4 µM (inactive)
GI50 [48]: 56.2 µM (inactive)
GI50 [49]: 72.6 µM (inactive)
GI50 [50]: 56.5 µM (inactive)
GI50 [51]: 55.6 µM (inactive)
GI50 [52]: > 100 µM (inactive)
GI50 [54]: 38.6 µM (inactive)
GI50 [55]: > 100 µM (inactive)
